# Key:
# [1] = system: cerebral blood flow in rats; test: CO2 delivered into the lungs (systemic challenge); cerebral blood flow and arterial gases; format: in vivo; details: rat, delivery into lungs
# From the text: (§1) Referring now to FIG. 3, it can be seen that the increase in cbf is attributable to focal intranasal or intra-oral effect rather than to systemic absorption of CO2. […] At this very high concentration, sufficient CO2 must be absorbed focally, intracranially, into the cerebral circulation to appear in measurable amounts in the systemic circulation. It cannot be concluded, therefore, that the increase in cbf is caused by a purely local action of CO2 rather than being secondary to systemic absorption. […] The effect on cbf during intranasal or intra oral delivery of CO2 with concomitant air inhalation into the lungs is therefore a focal effect on intranasal and intracranial vasculature rather than secondary to systemic absorption.
# [2] = system: intubated patients; details: hypercarbia from reduced ventilation rate; cited from earlier work
# [3] = system: cerebral blood flow in rats; test: Intranasal or intra-oral delivery of non-inhaled CO2 with air ventilation through a tracheostomy; cerebral blood flow and arterial gases; format: in vivo; details: rat
# From the text: When CO2 s inhaled through the nose or mouth into the pulmonary circulation, it passes into the systemic blood stream through the alveoli. Once it reaches the brain, it diffuses out into the csf to exert its effect. As more CO2 is inhaled into the lungs and absorbed into the systemic circulation, arterial CO2 concentration (PaCO2) rises, hydrogen ions are produced and arterial pH falls, creating an acidosis. Acidosis leads to narcosis, and ultimately coma and death. Less severe signs of CO2 inhalation in non-intubated patients include headaches, sweating and hyperventilation. […] Inhalation is prevented by ventilating the animal through a tracheostomy with air while delivering the experimental gas intranasally (or intra orally).
# The increase is the same with 100% and with 50% gas concentration. […] Decline following discontinuation is somewhat slower than rise during delivery.
# as §1
# [4] = system: awake humans; test: Tolerability of intranasal CO2 delivery in awake humans; format: in vivo, human
# From the text: While CO2 may be given to intubated, comatose individuals, the tolerability of intranasal gas delivery in awake humans has not previously been investigated. We have systematically tested the tolerability and effect of CO2 during intranasal delivery. CO2 elicits intense burning and stinging sensations which are intolerable above 16%. […] So individuals who are awake, such as stroke patients, these lower concentrations would be recommended. The current invention delivers CO2, or a combination of gases into the nasal or oral cavity but prevents its inhalation for the purposes of improving outcome from cerebral ischemia. […] In the embodiment with the anterior occlusion or “clip,” the CO2 could escape via a valve or exit tube or be suctioned out into a vacuumed container.
# [5] = 50% CO2 intranasal, air into lungs
smiles,measurement,setting,value
"O=C=O [CO2, carbon dioxide]",arterial CO2 concentration when CO2 is delivered into the lungs,[1],rapidly increases
same,arterial pH when CO2 is delivered into the lungs,[1],falls
same,cbf when CO2 is delivered into the lungs,[1],increases sharply
same,increase in cbf per mm Hg increase in arterial CO2 over 45 mm,[2],4%
same,"arterial pH, intranasal CO2 concentration 50%",[3]; [5],without any detectable increase in systemic PaCO2 or fall of pH
same,"cbf, intranasal CO2 concentration 50%",[3]; [5],doubles
same,"systemic PaCO2, intranasal CO2 concentration 50%",[3]; [5],without any detectable increase
same,"cbf, 100% CO2 delivered intranasally",[3]; 100% CO2 intranasal,also increases
same,"systemic CO2, 100% CO2 delivered intranasally, compared with lung delivery",[3]; 100% CO2 intranasal,far less increase
same,onset of cbf increase after start of delivery,"[3]; intranasal or intra-oral, non-inhaled",within seconds
same,cbf during intranasal or intra-oral delivery of CO2,"[3]; non-inhaled, increase the same with 100% and 50% gas concentration",more than doubled
same,CO2 concentration above which burning and stinging sensations are intolerable,[4],above 16%
same,tolerability of sensations at 16% CO2 or below,"[4]; 16% or below, sensations abate over a few minutes",quite tolerable

# From patent publication US20130302445A1, “APPARATUS AND METHOD FOR TREATING CEREBRAL ISCHEMIA USING NON-INHALED CARBON DIOXIDE” (priority 2012, published 2013)
